# Assay results published in US20110245284A1, “Alkoxy- and Alkylthio-Substituted Anilinopyrimidines” (Bayer CropScience AG, priority 2008, published 2011).
# What was measured:
# [1] = test system: Leptosphaeria nodorum; assay: Leptosphaeria nodorum test (wheat) / protective; format: in vivo; details: Parastagonospora nodorum, active compound concentration 500 ppm, evaluation 7-9 days after inoculation, read-out: efficacy
# Method: Thereafter, the plants are placed in a greenhouse at 90% relative atmospheric humidity and a temperature of 22° C.
# [2] = test system: Pyricularia oryzae; assay: whole plant or invertebrate; format: in vivo; details: 120 h, read-out: efficacy
# [3] = logP by LC-MS on reversed-phase columns (C 18), method [b], acidic range pH 2.7; format: physicochemical; details: pH 2.7, log p
# Method: (§1) The logP values were determined in accordance with EEC Directive 79/831 Annex V.A8 by HPLC (High Performance Liquid Chromatography) on reversed-phase columns (C 18), using the methods below:
# [b] The LC-MS determination in the acidic range is carried out at pH 2.7 using the mobile phases 0.1% aqueous formic acid and acetonitrile (contains 0.1% formic acid), linear gradient from 10% acetonitrile to 95% acetonitrile.
# [4] = test system: Rhizoctonia solani; assay: Rhizoctonia test (rice) / protective; format: in vivo; details: 96 h, active compound concentration 250 ppm, evaluation 4 days after inoculation, read-out: efficacy
# [5] = logP by HPLC on reversed-phase columns (C 18), method [a], acidic range pH 2.3; format: physicochemical
# Method: as §1
# [a] The determination is carried out in the acidic range at pH 2.3 using the mobile phases 0.1% aqueous phosphoric acid and acetonitrile, linear gradient from 10% acetonitrile to 95% acetonitrile.
# [6] = logP by LC-MS on reversed-phase columns (C 18), method [c], neutral range pH 7.8; format: physicochemical; details: pH 7.8
# Method: as §1
# [c] The LC-MS determination in the neutral range is carried out at pH 7.8 using the mobile phases 0.001 molar aqueous ammonium bicarbonate solution and acetonitrile, linear gradient from 10% acetonitrile to 95% acetonitrile.
# [7] = test system: Sphaerotheca fuliginea; assay: Sphaerotheca test (cucumber) / protective; format: in vivo; details: Podosphaera fuliginea, 168 h, active compound concentration 500 ppm, evaluation 7 days after inoculation, read-out: efficacy
# Method: The plants are subsequently placed in a greenhouse at 70% relative atmospheric humidity and a temperature of 23° C.
# [8] = test system: Pyrenophora teres; assay: Pyrenophora teres test (barley) / protective; format: in vivo; details: 192 h, active compound concentration 500 ppm, evaluation 8 days after inoculation, read-out: efficacy
# Method: After the spray coating has dried on, the plants are sprayed with a spore suspension of Pyrenophora teres. The plants remain in an incubation cabinet for 48 hours at 20° C. and 100% relative atmospheric humidity.
SMILES,pest or weed control at 500 ppm [1] [%],chromatographic logP [3],chromatographic logP [6],pest or weed control at 500 ppm [7] [%],"chromatographic logP ([5]; pH 2.3, logP (pH2.3))",pest or weed control at 500 ppm [8] [%],also measured
CCC(C)Sc1cccc(Nc2ncc(Cl)c(NC3CCC3)n2)c1 (centres unmarked) [Example 6],≥ 70,4.14,,,,,pest or weed control at 250 ppm [2]: ≥ 80%; pest or weed control at 250 ppm [4]: ≥ 80%
COCc1cccc(Nc2ncc(F)c(NC3CCC3)n2)c1 [Example 8],≥ 70,,2.95,≥ 70,,,"chromatographic logP ([5]; pH 2.3, log p): 1.5"
COCc1cccc(Nc2ncc(Cl)c(N(C)C(C)C)n2)c1 [Example 29],≥ 70,,4,,,,"chromatographic logP ([5]; pH 2.3, log p): 2.56"
"CCS(=O)(=O)C(C)c1cccc(Nc2ncc(C(F)(F)F)c(NC3CCC3)n2)c1 (centres unmarked) [Example 40, N^4-cyclobutyl-N^2-{3-[1-(ethylsulphonyl)ethyl]phenyl}-5-(trifluoromethyl)pyrimidine-2,4-diamine]",≥ 70,2.89,,≥ 70,2.89,,
"CC[S+]([O-])C(C)c1cccc(Nc2ncc(C(F)(F)F)c(NC3CCC3)n2)c1 (centres unmarked) [Example 43, N^4-Cyclobutyl-N^2-{3-[1-(ethylsulphinyl)ethyl]phenyl}-5-(trifluoromethyl)pyrimidine-2,4-diamine]",≥ 70,2.55,,≥ 70,2.55,,
COCc1cccc(Nc2ncc(Cl)c(NCC#N)n2)c1 [Example 51],,,2.09,,,,"chromatographic logP ([5]; pH 2.3, log p): 1.68"
CCOCCOc1cc(Nc2ncc(C(F)(F)F)c(NC3CC3)n2)ccc1C [Example 79],≥ 70,3.66,4.15,≥ 70,,,pest or weed control at 250 ppm [2]: ≥ 80%; pest or weed control at 250 ppm [4]: ≥ 80%
CCCS(=O)(=O)c1ccc(Nc2ncc(Cl)c(NC3CC3)n2)cc1 [Example 97],≥ 70,2.42,2.76,,,≥ 70,pest or weed control at 250 ppm [2]: ≥ 80%
CCC[S+]([O-])c1ccc(Nc2ncc(Cl)c(NC3CC3)n2)cc1 (centres unmarked) [Example 98],≥ 70,1.78,,≥ 70,,≥ 70,pest or weed control at 250 ppm [2]: ≥ 80%
CC[S+]([O-])c1cccc(Nc2ncc(Br)c(NC3CCC3)n2)c1 (centres unmarked) [Example 112],≥ 70,1.88,2.63,≥ 70,,≥ 70,
CC[S+]([O-])c1cccc(Nc2ncc(Cl)c(NC3CC3)n2)c1 (centres unmarked) [Example 114],≥ 70,1.48,2.11,≥ 70,,≥ 70,"chromatographic logP ([5]; pH 2.3, log p): 1.49"
CCCC[S+]([O-])c1cccc(Nc2ncc(Cl)c(NC3CC3)n2)c1 (centres unmarked) [Example 124],≥ 70,2.13,2.71,≥ 70,,≥ 70,
CCSC(C)c1cccc(Nc2ncc(Cl)c(NC(C)C)n2)c1 (centres unmarked) [Example 131],≥ 70,2.91,4.65,≥ 70,,≥ 70,
CCC(C)SC(C)c1cccc(Nc2ncc(C(F)(F)F)c(NC3CC3)n2)c1 (centres unmarked) [Example 132],≥ 70,5.09,5.38,≥ 70,,≥ 70,
CCCCS(=O)(=O)c1cccc(Nc2ncc(Br)c(NC3CCC3)n2)c1 [Example 151],≥ 70,3.24,3.88,,,,pest or weed control at 250 ppm [2]: ≥ 80%; pest or weed control at 250 ppm [4]: ≥ 80%
CCC(C)[S+]([O-])c1cccc(Nc2ncc(Cl)c(NC3CC3)n2)c1 (centres unmarked) [Example 175],≥ 70,2.12,2.74,≥ 70,,≥ 70,
CCOCCSc1cccc(Nc2ncc(C(F)(F)F)c(NC3CC3)n2)c1 [Example 190],≥ 70,3.87,4.05,≥ 70,,≥ 70,
COCC(O)c1cccc(Nc2ncc(Cl)c(NC3CC3)n2)c1 (centres unmarked) [Example 194],≥ 70,1.26,,≥ 70,,≥ 70,
COCc1cccc(Nc2ncc(Cl)c(NC3CC(C)C3)n2)c1 (centres unmarked) [Example 198],≥ 70,,,≥ 70,,,"chromatographic logP ([5]; pH 2.3, log p): 4.04"

SMILES,pest or weed control at 500 ppm [1] [%],chromatographic logP [3],chromatographic logP [6],pest or weed control at 500 ppm [7] [%],"chromatographic logP ([5]; pH 2.3, logP (pH2.3))",pest or weed control at 500 ppm [8] [%],also measured
CCOCCCSc1cccc(Nc2ncc(Cl)c(NC3CC3)n2)c1 [Example 204],≥ 70,3.02,4.22,,,≥ 70,
COCc1cccc(Nc2ncc(Cl)c(NC3CCC3C)n2)c1 (centres unmarked) [Example 207],≥ 70,2.44,4,,,,pest or weed control at 250 ppm [2]: ≥ 80%; pest or weed control at 250 ppm [4]: ≥ 80%
COCCOc1cccc(Nc2ncc(Cl)c(NC3CC3C)n2)c1 (centres unmarked) [Example 209],≥ 70,,,,,≥ 70,
"COCCCOC(C)c1cccc(Nc2ncc(Cl)c(NC3CC3)n2)c1 (centres unmarked) [Example 256, 5-Chloro-N4-cyclopropyl-N2-{3-[1-(3-methoxypropoxy)ethyl]phenyl}pyrimidine-2,4-diamine]",,2.2,3.62,,2.2,,
"CC(C)Sc1cccc(Nc2ncc(C(F)(F)F)c(Cl)n2)c1 [Xa-2, 4-Chloro-N-[3-(propan-2-ylsulphanyl)phenyl]-5-(trifluoromethyl)pyrimidin-2-amine]",,,,,4.93,,
"CC(C)CCSc1cccc(Nc2ncc(C(F)(F)F)c(Cl)n2)c1 [Xa-3, 4-Chloro-N-{3-[(3-methylbutyl)sulphanyl]phenyl}-5-(trifluoromethyl)pyrimidin-2-amine]",,,,,5.79,,
"CC(C)CCSc1cccc(Nc2ncc(Cl)c(Cl)n2)c1 [Xa-4, 4,5 -Dichloro-N-{3-[(3-methylbutyl)sulphanyl]phenyl}pyrimidin-2-amine]",,,,,4.98,,
"CCCSc1cccc(Nc2ncc(Cl)c(Cl)n2)c1 [Xa-5, 4,5-Dichloro-N-[3-(propylsulphanyl)phenyl]pyrimidin-2-amine]",,,,,4.1,,
"CC(C)Sc1cccc(Nc2ncc(Cl)c(Cl)n2)c1 [Xa-6, 4,5-Dichloro-N-[3-(propan-2-ylsulphanyl)phenyl]pyrimidin-2-amine]",,,,,4.04,,
"CC(C)CSc1cccc(Nc2ncc(C(F)(F)F)c(Cl)n2)c1 [Xa-7, 4-Chloro-N-{3-[(2-methylpropyl)sulphanyl]phenyl}-5-(trifluoromethyl)pyrimidin-2-amine]",,,,,5.4,,
"CSC(C)c1cccc(Nc2ncc(C(F)(F)F)c(Cl)n2)c1 (centres unmarked) [Xa-8, 4-Chloro-N-{3-[1-(methylsulphanyl)ethyl]phenyl}-5-(trifluoromethyl)pyrimidin-2-amine]",,,,,4.5,,
"COC(C)c1cccc(Nc2ncc(C(F)(F)F)c(Cl)n2)c1 (centres unmarked) [Xa-9, 4-Chloro-N-[3-(1-methoxyethyl)phenyl]-5-(trifluoromethyl)pyrimidin-2-amine]",,,,,3.89,,
"CSc1cccc(Nc2ncc(C(F)(F)F)c(Cl)n2)c1 [Xa-11, 4-Chloro-N-[3-(methylsulphanyl)phenyl]-5-(trifluoromethyl)pyrimidin-2-amine]",,,,,4.11,,
"CCSC(C)c1cccc(Nc2ncc(C(F)(F)F)c(Cl)n2)c1 (centres unmarked) [Xa-12, 4-Chloro-N-{3-[1-(ethylsulphanyl)ethyl]phenyl}-5-(trifluoromethyl)pyrimidin-2-amine]",,,,,4.9,,
"COC(C)c1cccc(Nc2ncc(Br)c(Cl)n2)c1 (centres unmarked) [Xa-13, 5-Bromo-4-chloro-N-[3-(1-methoxyethyl)phenyl]pyrimidin-2-amine]",,,,,3.09,,
"CC(O)c1cccc(Nc2ncc(Cl)c(Cl)n2)c1 (centres unmarked) [Xa-14, 1-{3-[(4,5-Dichloropyrimidin-2-yl)amino]phenyl}ethanol]",,,,,1.98,,
"CC(O)c1cccc(Nc2ncc(C(F)(F)F)c(Cl)n2)c1 (centres unmarked) [Xa-15, 1-(3-{[4-Chloro-5-(trifluoromethyl)pyrimidin-2-yl]amino}phenyl)ethanol]",,,,,2.81,,
"CCCS(=O)(=O)c1cccc(Nc2ncc(C(F)(F)F)c(Cl)n2)c1 [Xc-1, 4-chloro-N-[3-(propylsulphonyl)phenyl]-5-(trifluoromethyl)pyrimidin-2-amine]",,,,,3.29,,
